Experiments:
[1] = molecular target: Neuronal acetylcholine receptor; assay: Inhibitory concentration required for in vitro binding affinity to cholinergic central Nicotinic acetylcholine receptor on rat brain cortex by using [3H]MCC
[2] = molecular target: Muscarinic acetylcholine receptor; assay: Inhibitory concentration required for in vitro binding affinity to cholinergic central muscarinic receptor on rat brain cortex by using [3H]OXO-M
[3] = molecular target: T1, Neuronal acetylcholine receptor; alpha3/beta2 (Homo sapiens, UniProt P17787+P32297); assay: Inhibitory concentration required for in vitro binding affinity to Nicotinic acetylcholine receptor alpha3-beta2 expressed on cell line sf 9 by using [3H]-MCC; parameters: species or system Rattus norvegicus
T1 sequence (P17787 whole entry): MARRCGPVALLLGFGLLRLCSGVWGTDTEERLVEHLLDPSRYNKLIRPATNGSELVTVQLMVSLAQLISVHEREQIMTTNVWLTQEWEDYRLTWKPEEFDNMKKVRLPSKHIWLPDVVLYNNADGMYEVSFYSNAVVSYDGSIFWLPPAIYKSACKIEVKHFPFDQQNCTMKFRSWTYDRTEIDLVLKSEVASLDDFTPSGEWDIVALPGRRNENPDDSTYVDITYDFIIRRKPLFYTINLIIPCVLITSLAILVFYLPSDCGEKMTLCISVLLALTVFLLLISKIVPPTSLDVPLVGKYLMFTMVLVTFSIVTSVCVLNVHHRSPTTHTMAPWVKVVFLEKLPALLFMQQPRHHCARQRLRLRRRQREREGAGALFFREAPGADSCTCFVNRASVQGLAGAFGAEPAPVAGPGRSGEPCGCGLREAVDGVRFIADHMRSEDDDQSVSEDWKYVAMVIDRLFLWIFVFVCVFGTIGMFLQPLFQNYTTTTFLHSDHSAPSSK
T1 sequence (P32297 whole entry): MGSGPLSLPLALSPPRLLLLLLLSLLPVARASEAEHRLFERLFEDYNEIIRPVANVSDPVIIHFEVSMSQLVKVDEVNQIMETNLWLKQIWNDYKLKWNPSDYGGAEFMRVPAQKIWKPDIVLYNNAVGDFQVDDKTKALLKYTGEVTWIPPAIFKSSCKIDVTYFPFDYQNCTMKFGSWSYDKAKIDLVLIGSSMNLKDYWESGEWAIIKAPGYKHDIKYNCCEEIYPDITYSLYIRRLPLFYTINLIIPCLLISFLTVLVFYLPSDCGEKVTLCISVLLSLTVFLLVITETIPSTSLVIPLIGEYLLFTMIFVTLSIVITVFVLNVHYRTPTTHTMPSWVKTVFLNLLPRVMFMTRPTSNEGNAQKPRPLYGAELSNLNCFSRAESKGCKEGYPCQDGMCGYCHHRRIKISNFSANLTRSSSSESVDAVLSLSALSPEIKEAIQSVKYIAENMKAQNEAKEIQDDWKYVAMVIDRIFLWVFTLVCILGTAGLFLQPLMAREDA

[4] = Inhibitory concentration required for in vitro binding affinity to Nicotinic acetylcholine receptor alpha4-beta2 expressed on cell line sf 21 by using [3H]-MCC
Rattus norvegicus [5] = assay: Compound was tested in vivo against effective nicotinic agonistic activity in rat; format: functional
Rattus norvegicus [6] = species on record: Rattus norvegicus; assay: The compound was tested for inducing [3H]dopamine release from striatal slices at 10 uM nicotine; format: functional
Rattus norvegicus [7] = species on record: Rattus norvegicus; assay: The compound was tested for inducing [3H]dopamine release from striatal slices at 1 uM nicotine; format: functional
Rattus norvegicus [8] = assay: Compound was tested in vivo against effective nicotinic agonistic activity in rat when administered s.c.; format: functional; conditions: sc
Xenopus sp. [9] = species on record: Xenopus sp.; assay: Compound was tested for inducing stimulation of current response in Xenopus oocytes (alpha3-beta2) at 30 uM; format: functional, frog
Mus musculus [10] = assay: Compound was tested in vivo for exploratory locomotor activity in mice after peroral administration; format: functional; conditions: po
Mus musculus [11] = assay: Compound was tested in vivo for exploratory locomotor activity in mice after subcutaneous administration; format: functional; conditions: sc
[12] = molecular target: T1, Neuronal acetylcholine receptor; alpha3/beta2; assay: Inhibitory concentration required for in vitro binding affinity to Nicotinic acetylcholine receptor alpha3-beta2 expressed on cell line Sf 9 by using [3H]MCC; parameters: species or system Rattus norvegicus
[13] = Inhibitory concentration required for in vitro binding affinity to Nicotinic acetylcholine receptor alpha4-beta2 expressed on cell line Sf 21 by using [3H]MCC
Rattus norvegicus [14] = species on record: Rattus norvegicus; assay: Compound was tested for inducing [3H]-dopamine release from striatal slices at 10 uM nicotine; format: functional
Xenopus sp. [15] = species on record: Xenopus sp.; assay: Compound was tested for inducing stimulation of current response in Xenopus oocytes (alpha4-beta2) at 1 uM; format: functional, frog
Rattus norvegicus [16] = species on record: Rattus norvegicus; assay: Compound was tested for inducing [3H]dopamine release from striatal slices at 1 uM nicotine; format: functional
[17] = Inhibitory concentration required for in vitro binding affinity to Nicotinic acetylcholine receptor alpha4-beta2 expressed on cell line sf 21 by using [3H]MCC
Rattus norvegicus [18] = assay: The compound was tested in vivo against effective nicotinic agonistic activity in rat; format: functional
Rattus norvegicus [19] = assay: The compound was tested in vivo against effective nicotinic agonistic activity in rat when administered s.c.; format: functional; conditions: sc

Row | SMILES | IC50 [1] [nM] | IC50 [2] [nM] | IC50 [3] [nM] | IC50 [4] [nM] | Activity (Rattus norvegicus [5]) [%] | Activity (Rattus norvegicus [6]) [%] | Activity (Rattus norvegicus [7]) [%] | ED50 (Rattus norvegicus [8]) [mg/kg] | Response (Xenopus sp. [9]) [%] | ED50 (Mus musculus [10]) [mg/kg] | ED50 (Mus musculus [11]) [mg/kg] | IC50 [12] [nM] | IC50 [13] [nM] | Activity (Rattus norvegicus [14]) [%] | Response (Xenopus sp. [15]) [%] | Activity (Rattus norvegicus [16]) [%] | IC50 [17] [nM] | Activity (Rattus norvegicus [18]) [%] | ED50 (Rattus norvegicus [19]) [mg/kg]
1 | Cc1cc(C=C2CN3CCCC2C3)on1 (stereo not drawn) | 85 | 1700 | 117 | 41 | – | – | – | – | – | – | – | – | – | – | – | – | – | – | –
2 | Cc1cc(/C=C2/CN3CCC2C3)on1 (stereo not drawn) | 26 | 2800 | 14 | 6.5 | 62 | 46 | 17 | 0.2 | 38 | – | – | – | – | – | – | – | – | – | –
3 | Cc1cc(/C=C2\CN3CCC2C3)on1 (stereo not drawn) | 23 | 1200 | – | – | 63 | – | – | 0.5 | 51 | 2 | 4.1 | 15 | 11 | 80 | 171 | 38 | – | – | –
4 | Cc1cc(/C=C2/CN3CCC2CC3)on1 | – | 1500 | 854 | – | – | – | – | – | – | – | – | – | – | – | – | – | 288 | – | –
5 | Cc1cc(/C=C2\CN3CCC2CC3)on1 | 3.4 | 1000 | 1.9 | 1.4 | – | 68 | 51 | – | 135 | 2.4 | 0.4 | – | – | – | 300 | – | – | 60 | 0.1
6 | Cc1cc(/C=C2\CN3CCCC2C3)on1 (stereo not drawn) | 170 | 950 | 217 | 26 | – | – | – | – | – | – | – | – | – | – | – | – | – | – | –
7 | Cc1cc([C@@H]2CCCN2C)on1 [ABT-418] | – | – | 62 | 37 | 72 | 66 | 5 | 0.2 | 40 | 72 | 10 | – | – | – | 24 | – | – | – | –
8 | CN1CCC[C@H]1c1cccnc1 [NICOTINE] | – | – | – | 4.2 | – | 180 | 100 | – | 100 | > 9 | 0.3 | – | – | – | 100 | – | – | 96 | 0.04
